From US20200281904A1, “PROPHYLACTIC AND/OR THERAPEUTIC AGENT FOR DISEASES INVOLVING IDO EXPRESSION” (TAIHO PHARMACEUTICAL CO., LTD., priority 2017, published 2020)

How the values were obtained:
[1] = tested on: IDO protein; test: Inhibitory effect on IDO protein expression, Western blotting; assay type: cell-based; settings: human stomach cancer line NCI-N87; IFNγ 100 U/mL; 0.001, 0.01, 0.1 and 1 μM; 24 hours; FIG. 1
Experimental: Protein expression was detected by a Western blotting method. A human stomach cancer line NCI-N87 (CRL-5822) was purchased from American Type Culture Collection (ATCC). The cells were cultured in RPMI1640 (Wako Pure Chemical Industries, Ltd.) medium supplemented with 10% fetal bovine serum (FBS). The cells were seeded in a 6-well plate (#140675, Nunc) at 1×10^6 cells per well. The cells were cultured in a 5% CO2 incubator at 37° C. for 24 hours, INFγ (PeproTech, Inc.) at 100 U/mL and test substances [tanespimycin (Biotrend), ganetespib, BIIBO21 and Compound 1] in amounts of 0.001 μM, 0.01 μM, 0.1 μM and 1 μM each were then added, and the cells were further cultured for 24 hours. After the culturing, the cells were washed with ice-cooled PBS, and the cells were then lysed with a cytolytic agent. The cell lysate solution was centrifuged, and the soluble fraction was then removed, and subjected to thermal denaturation, followed by protein separation by SDS-PAGE.
10-fold dilution of TBST (Santa Cruz) with Milli-Q water was used as a washing solution, and the TBST solution containing 5% Blocking One (nacalai tesque) was used as an antibody diluting solution.
After completion of SDS-PAGE, the protein was transferred to a PVDF membrane (Trans-Blot Turbo Midi PVDF Transfer Pack, Biorad) by using a blotting device (Trans-Blot Turbo Transfer System, Biorad). The membrane after the transfer was blocked by incubation at room temperature for 60 minutes or more with Blocking One. […] The PVDF membrane was washed three times with the washing solution, and then immersed in SuperSignal West Pico Chemiluminescent Substrate (Thermo Scientific) for detection of GAPDH, or SuperSignal West Dura Extended Duration Substrate (Thermo Scientific) for detection of IDO, and chemiluminescence was detected by using Image Analyzer Amersham Imager 600QC (GE Healthcare Japan Corporation).

[2] = tested on: cells expressing IDO due to addition of IFNγ (IDO-positive cells); test: Suppressive effect on growth in IDO-positive cells (all four lines, result in words); assay type: cell-based, human; settings: GIST-T1, HCC827, NCI-H1975, NCI-N87 with IFNγ 100 U/mL; 0.001-10 μM; 72 hours; FIG. 3
Experimental: (§1) Human stomach cancer line NCI-N87 (CRL-5822), human lung cancer line NCI-H1975 (CRL-5908) and human lung cancer line HCC827 (CRL-2868) were purchased from ATCC, and human gastrointestinal stromal tumor line GIST-T1 (GIST01) was purchased from Cosmo Bio Co., Ltd. NCI-N87, NCI-H1975 and HCC827 were cultured in RPM11640 (Wako Pure Chemical Industries, Ltd.) medium supplemented with 10% FBS, and GIST-T1 was cultured in DMEM (Wako Pure Chemical Industries, Ltd.) medium supplemented with 10% FBS. The IDO protein and GAPDH were detected in the same manner as in Example 1 described above.
The amount of ATP generated from surviving cells was determined by CellTiter-Glo2.0 Assay (# G9243, Promega Corporation) to evaluate the cell growth inhibition ability of test substance. […] The intensity of luminescence was measured using a microplate reader (EnSpire™ Multimode Plate Reader, PerkinElmer Japan Co., Ltd.), and used as an index of the number of surviving cells in each well. Using the intensity of luminescence of a group not treated with a test substance (control group) as a control, the cell survival rate (%) was calculated by using the following equation. […]

[3] = tested on: NCI-N87; test: Cell growth inhibition, CellTiter-Glo2.0 Assay, IFNγ added; assay type: cell-based; settings: Homo sapiens, IFNγ 100 U/mL, 72 hours, number of surviving cells reduced to 50% of control
Experimental: as §1
(§2) The amount of ATP generated from surviving cells was determined by CellTiter-Glo2.0 Assay (# G9243, Promega Corporation) to evaluate the cell growth inhibition ability of test substance. The cells of GIST-T1, HCC827, NCI-H1975 and NCI-N87 were seeded in 96-well plates (#165305, Thermo Scientific) at 1×10^4 (NCI-N87), 2×10^3 (HCC827 and HCI-H1975) and 3×10^3 (GIST-T1) per well, and cultured in a 5% CO2 incubator at 37° C. for 24 hours. After the culturing for 24 hours, INFγ (PeproTech) at 100 U/mL and a test substance (Compound 1) in amounts of 0.001 μM, 0.003 μM, 0.01 μM, 0.03 μM, 0.1 μM, 0.3 μM, 1 μM, 3 μM and 10 μM each were added, and further cultured for 72 hours. Equivalent amount of CellTiter-Glo2.0 Assay reagent as the medium was added to each well, the mixture was stirred for 2 minutes using a shaker under shading condition, and the plate was then left to stand at room temperature for about 10 minutes. The intensity of luminescence was measured using a microplate reader (EnSpire™ Multimode Plate Reader, PerkinElmer Japan Co., Ltd.), and used as an index of the number of surviving cells in each well. Using the intensity of luminescence of a group not treated with a test substance (control group) as a control, the cell survival rate (%) was calculated by using the following equation. From the obtained survival rate, the concentration (IC50 (μM)), at which the number of surviving cells is reduced to 50% of the control, was determined by a curve fitting regression analysis tool using Regression Analysis Tool XLfit5.3.0.8 (IDBS Ltd.).
(§3) Cell survival rate=T/C×100
(§4) T: Amount of luminescence in wells with a test substance
(§5) C: Amount of luminescence in wells with no test substance

[4] = tested on: NCI-H1975; test: as above; assay type: cell-based; settings: Homo sapiens, IFNγ 100 U/mL, 72 hours, number of surviving cells reduced to 50% of control
Experimental: as §1, §2, §3, §4, §5

[5] = tested on: GIST-T1; test: as above; assay type: cell-based; settings: Homo sapiens, GISTT1, IFNγ 100 U/mL, 72 hours, number of surviving cells reduced to 50% of control
Experimental: as §1, §2, §3, §4, §5

[6] = tested on: HCC827; test: as above; assay type: cell-based; settings: Homo sapiens, IFNγ 100 U/mL, 72 hours, number of surviving cells reduced to 50% of control
Experimental: as §1, §2, §3, §4, §5

| Compound | inhibitory effect on IDO expression [1] | suppressive effect on cell growth [2] | IC50 [3] [nM] | IC50 [4] [nM] | IC50 [5] [nM] | IC50 [6] [nM] |
| --- | --- | --- | --- | --- | --- | --- |
| COc1c(C)cnc(Cn2cnc3c(Cl)nc(N)nc32)c1C [BIIBO21] | inhibitory effect on IDO expression in a concentration-dependent manner | – | – | – | – | – |
| CCc1cc(C(N)=O)ccc1-n1nc(C(C)C)c2c(-n3cnc(-c4cnn(C)c4)c3)ccnc21 [Compound 1, 3-ethyl-4-{3-isopropyl-4-(4-(1-methyl-1H-pyrazol-4-yl)-1H-imidazol-1-yl)-1H-pyrazolo[3,4-b]pyridin-1-yl}benzamide] | inhibitory effect on IDO expression in a concentration-dependent manner | suppressive effect on cell growth in a concentration-dependent manner | 380 | 810 | 270 | 1420 |
| CC(C)c1cc(-c2n[nH]c(=O)n2-c2ccc3c(ccn3C)c2)c(O)cc1O [ganetespib] | inhibitory effect on IDO expression in a concentration-dependent manner | – | – | – | – | – |
